Legend:
[1] = Intrinsic dissolution profile as a function of pH; format: physicochemical; conditions: result in words; for pH dissolution profile: 0.1N HCl (pH 1), pH 4.5 acetate buffer, pH 6.8 phosphate buffer, water, 37° C.; for dissolution behavior at the low pH condition: 0.1N HCl
Protocol: (§1) The opioid salts of the present invention were tested to determine their dissolution profile as a function of pH, and as a function of ethanol concentration in acidic media (dose dumping). To perform these experiments the buffered dissolution media and acidic ethanol solutions were prepared as identified herein, “Preparation of Solutions”. The test procedure was derived from the procedures cited in the United States Pharmacopeia and National Formulary (USP), numbers <1087> and <711>. The dose dumping procedure was adopted from the United States Food and Drug Administration's guidance regarding the dose dumping of oxymorphone. The sampling interval and regimen was defined and each sample analyzed by HPLC. Results from the HPLC analyses were plotted as a function of time and dissolution condition (FIG. 37 through FIG. 97 inclusive, and FIGS. 102-105, 109, 110, 114 and 115). This procedure was used to obtain the pH and dose dumping dissolution profiles disclosed herein. […] All activities within the procedure were conducted and executed for each of the compounds reported herein. Unless otherwise stated HPLC measurements were done and reported at ambient temperature and dissolution testing was done nominally at 37° C.
The following procedures were derived from USP <1087> Intrinsic Dissolution and USP <711> Dissolution methods, as well as manufacturer recommended procedures for use of the International Crystals Laboratories intrinsic dissolution disks.
(§2) The material which is to be subjected to dissolution is weighed using an analytical balance. 45.00-55 mg of the analyte was weighed and transferred to an International Crystals Laboratories fixed/static disk 316 stainless die with a 0.8 cm diameter die cavity. A hardened steel punch was then inserted into the cavity and the material was compressed at 2000 psi for 4-5 minutes using a bench top hydraulic press. The punch is then removed to expose the 0.5 cm^2 pellet surface. A Viton gasket is then placed around the threaded shoulder of the die and a polypropylene cap is threaded onto the die. This process can be repeated to generate as many pellets as is necessary for the experiment.
A Distek Dissolution System equipped with a model number TCS0200C temperature control system was filled with water and set to a temperature of 37.3° C. The vessel cavities were then equipped with four 1 L flat-bottomed Distek dissolution vessels. Four vessels were then filled with 500 mL of the following media: 0.1N HCl, pH 4.5 acetate buffer, pH 6.8 phosphate buffer, and USP grade water. The solutions were allowed to warm in the water bath for approximately 1 hour, but not exceeding 3 hours, or until the temperature of the media matched that of the water bath. Paddles were then mounted to the Distek stirring apparatus above the four dissolution vessels such that the distance between the paddle and the die face is 1 inch. The paddle speed is then set to 50 RPM.
The pellet prepared as described above was submerged into a vessel prepared as described above, with the pellet surface facing up (metal die up, polypropylene cap facing down). Forceps are used to aid this process so that the pellet apparatus can be gently placed into the bottom of the vessel. A timer is used to track the sampling intervals, and is started when the pellet is dropped into the solution. The lid to the dissolution apparatus is then lowered and the stirring apparatus is activated. Some planning is required in spacing out pellet drops such that each vessel can be sampled at the desired time intervals. Sampling is done by aspirating 10 mL of the solution using a Popper® Micro-Mate® Interchangeable Hypodermic Syringe equipped with a Vortex Pharma Group 10 micron cannula porous filter. This filter should be replaced after each use. Although sampling intervals can change from experiment to experiment, the following has been heavily utilized for the experiments described herein.

[2] = Intrinsic dissolution dose dumping profile (ethanol concentration in acidic media, FDA protocol); format: physicochemical; conditions: for dose dumping dissolution profile: 0.1N HCl with 0, 5, 20 and 40% ethanol; for dose dumping profile at the 5% ethanol condition: 5% ethanol in 0.1N HCl; for dose dumping profile at the 20% ethanol condition: 20% ethanol in 0.1N HCl; for active released: in approximately sixty minutes; for release: 40% EtOH in 0.1N HCl
Text: A general overview of this concern may be found at http://www.fda.gov/ohrms/dockets/AC/05/slides/2005-4187S2—02_Hussain.ppt. This Oct. 26, 2005 overview presentation by the deputy director OPS/CDER of the FDA and entitled “Preventing Alcohol Induced Dose Dumping is a Desired Product Design Feature” describes the dose-dumping phenomenon. Dose dumping can be employed by those with the deliberate intention of abusing the drug, but may also occur during the normal/moderate consumption of alcohol while taking a prescribed medication. Simply, dose dumping is that condition “in which the complete dose may be more rapidly released from the dosage form than intended, creating a potential safety risk”. Clearly, with the opioid narcotics, dose dumping for the intention of experiencing the “high” or rush, may have severe, even deadly consequences. The presentation further categorizes the results from dose dumping testing as either vulnerable, rugged or uncertain. If the dissolution profile in the presence of alcohol accelerates the release of the active ingredient, the product is classified as vulnerable and would likely not receive FDA market approval. In contrast, a rugged product design is achieved when the dissolution profile of the drug substance, again in the presence of alcohol, is identical to or is available to a lesser extent as compared to the control. The testing regimen recommended within the FDA's draft guidance includes determining the dissolution profile in 0.1N HCl solutions wherein the sample is tested in the medium and at increasing levels of ethanol, specifically at 5, 20 and 40% alcohol.
as §1
The following procedures were derived from the FDA Draft Guidance for Oxymorphone Hydrochloride (recommended in November, 2007).
as §2, with “85.00-95.00” for “45.00-55”
A Distek Dissolution System equipped with a model number TCS0200C temperature control system, was filled with water and set to a temperature of 37.3° C. The vessel cavities were then equipped with four 1 L flat-bottomed Distek dissolution vessels.

[3] = Modified dose dumping protocol: ethanol solutions in the absence of the 0.1N HCl media

Compound: Oxycodone Xinafoate
- pH dissolution profile [1]: poor dissolution profile at pH 1 with a gradual release as the pH increases
- dose dumping dissolution profile ([2]; result in words): dose dumps immediately at the higher EtOH concentrations

Compound: Polymorphic Hydrocodone Pamoate Form II
- dissolution behavior at the low pH condition [1]: slower release than Form I
- dose dumping profile at the 5% ethanol condition ([2]; result in words): essentially identical to the 0.1N HCl condition
- dose dumping profile at the 20% ethanol condition ([2]; result in words): did not accelerate dose dumping
- dose dumping profile at the 40% ethanol condition ([2]; 40% ethanol in 0.1N HCl, result in words): did not promote dose dumping

Compound: CN(C)CCCN1c2ccccc2CCc2ccccc21.CN(C)CCCN1c2ccccc2CCc2ccccc21.O=C(O)c1cc2ccccc2c(Cc2c(O)c(C(=O)O)cc3ccccc23)c1O [imipramine pamoate, reference compound]
- dose dumping dissolution profile ([2]; result in words): exhibited dose dumping properties

Compound: COc1ccc2c3c1O[C@H]1C(=O)CC[C@H]4[C@@H](C2)N(C)CC[C@]314.O=C(O)C(O)C(O)C(=O)O [hydrocodone bitartrate, reference compound]
- pH dissolution profile [1]: immediate release (IR) characteristics
- dose dumping dissolution profile ([2]; result in words): exhibit dose dumping propensities

Compound: Oxycodone Pamoate [polymorphic form of oxycodone pamoate]
- pH dissolution profile [1]: essentially identical pH dissolution profile as the amorphous form
- active released ([2]; 0.1N HCl containing 5% EtOH): about 70%
- active released ([2]; 0.1N HCl): about 70%
- equilibrium solubility (release) ([2]; 20% EtOH in 0.1N HCl, reached in about 30 minutes): ~10%
- release ([2]; after 3 hours): approximately 40%
- release ([2]; after about 80 minutes): ~10%

Compound: Hydrocodone Xinafoate
- pH dissolution profile [1]: extended release at pH 1, and independent release as the pH increases

Compound: COc1ccc2c3c1O[C@H]1C(=O)CC[C@@]4(O)[C@@H](C2)N(C)CC[C@]314.Cl [oxycodone hydrochloride, reference compound]
- pH dissolution profile [1]: immediate release (IR) characteristics
- dose dumping dissolution profile ([2]; result in words): apparent solution equilibrium was obtained within minutes
- dissolution in the control condition ([2]; 0.1 N HCl without EtOH, result in words): complete dissolution within minutes
- enhancement of the release profile by the acidic media ([2]; at each ethanol level, comparing FIGS. 58 and 59): more than 20 % (absolute)
- amount of oxycodone extracted / opiate immediately released ([3]; 40% EtOH (about 80 proof), no 0.1N HCl): about 50%

Compound: Amorphous Hydrocodone Pamoate Form II
- dissolution behavior at the low pH condition [1]: ranks between that observed for Form I and the acetone solvated form
- dose dumping profile at the 5% ethanol condition ([2]; result in words): slow (and essentially identical) dissolution response
- dose dumping profile at the 20% ethanol condition ([2]; result in words): slow (and essentially identical) dissolution response

Compound: Oxycodone Pamoate [amorphous oxycodone pamoate]
- time to complete (full) release of the opiate ([2]; 0.1N HCl media, no EtOH): about one
- dose dumping dissolution profile ([2]; result in words): no dose dumping benefit
- dissolution profile as a function of ethanol concentration ([3]; 0.1N HCl with 0% EtOH, and 5, 20, 40% EtOH without acid, result in words): slow linear process
- opiate released ([3]; 40% EtOH, over about one hour): approximately 60%
- pamoate released (apparent pamoate equilibrium solubility) ([3]; 40% ethanol condition, FIG. 62): about 85%
- time to apparent pamoate equilibrium solubility ([3]; 40% ethanol condition, FIG. 62): approximately 45 minutes

Compound: Amorphous Hydrocodone Pamoate Acetone Solvate [solvated amorphous form]
- dose dumping dissolution profile ([2]; result in words): somewhat erratic compared with Form II

Compound: Amorphous Hydrocodone Pamoate Form I [amorphous Form I]
- dose dumping dissolution profile ([2]; result in words): somewhat erratic compared with Form II

Reference: patent US8329720B1 (Pisgah Laboratories, Inc., priority 2007, dated 2012)
